“Also recorded” adds a separate entry of the source. Counter-ions that a name gives are not always drawn. Like-named read-outs stand apart in the source and are kept apart here.
Experiments:
[1] = system: striatal dopamine receptors; assay: animal or person; assay type: in vivo; details: Rattus norvegicus, sc, read-out: EC50, rotation behavior
dopamine D-2 receptor = target: T1, dopamine D-2 receptor (Rattus norvegicus, UniProt P61169); assay: D-2 receptor competitive binding, [3H]-spiroperidol, homogenized rat caudate; details: rat caudate, [3H]-spiroperidol; read-out: D-2 Ki
T1 construct: Homogenized rat caudate was the source of the D-2 receptors; from tissue; host or cells: rat caudate homogenate

D-1 receptor = assay: Adenylate cyclase assay (agonist activity, cAMP); assay type: biochemical, goldfish retina or rat striatum
dopamine D-1 receptor = dopamine D-1 receptor (Rattus norvegicus, UniProt P18901); assay: biochemical
[2] = goldfish retina or rat striatum homogenate

T1 sequence (P61169 whole entry): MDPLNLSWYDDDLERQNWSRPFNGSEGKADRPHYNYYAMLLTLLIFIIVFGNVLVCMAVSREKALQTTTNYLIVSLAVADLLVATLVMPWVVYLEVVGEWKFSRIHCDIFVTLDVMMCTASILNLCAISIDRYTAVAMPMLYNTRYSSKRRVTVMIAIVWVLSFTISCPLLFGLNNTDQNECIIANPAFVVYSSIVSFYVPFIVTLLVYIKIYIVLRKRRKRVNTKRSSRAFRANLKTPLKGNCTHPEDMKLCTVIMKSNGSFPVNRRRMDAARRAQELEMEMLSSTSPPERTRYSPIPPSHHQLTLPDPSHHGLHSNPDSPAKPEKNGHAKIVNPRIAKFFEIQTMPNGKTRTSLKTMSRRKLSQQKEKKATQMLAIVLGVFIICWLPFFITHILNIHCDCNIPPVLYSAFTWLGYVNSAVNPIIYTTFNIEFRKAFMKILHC
Chain of dopamine D-1 receptor (P18901 whole entry): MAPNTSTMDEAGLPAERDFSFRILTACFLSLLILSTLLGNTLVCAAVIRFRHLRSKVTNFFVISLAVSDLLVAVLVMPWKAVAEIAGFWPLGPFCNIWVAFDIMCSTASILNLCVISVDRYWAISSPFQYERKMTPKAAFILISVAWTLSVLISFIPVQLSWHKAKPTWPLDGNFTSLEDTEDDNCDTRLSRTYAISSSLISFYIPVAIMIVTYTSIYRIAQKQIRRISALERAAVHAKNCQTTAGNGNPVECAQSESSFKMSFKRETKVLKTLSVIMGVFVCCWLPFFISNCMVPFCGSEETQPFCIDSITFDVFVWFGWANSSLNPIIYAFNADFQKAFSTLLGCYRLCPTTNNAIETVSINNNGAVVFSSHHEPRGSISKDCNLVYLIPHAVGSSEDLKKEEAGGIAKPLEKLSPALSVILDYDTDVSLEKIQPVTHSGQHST

| Molecule | ED50 [1] | Ki (dopamine D-2 receptor) | Intrinsic Activity (%) (D-1 receptor) | EC50 (D-1 receptor; [2]) | Ki (dopamine D-1 receptor) | EC50 (D-1 receptor) | agonist/antagonist properties at dopamine receptor (D-1 receptor; hydrobromide) |
| --- | --- | --- | --- | --- | --- | --- | --- |
| CCCc1cc2c(s1)CN[C@H]1CCc3cc(O)c(O)cc3[C@H]21 (relative stereo) [Example 5, trans-2-propyl-4,5,5a,6,7,11b-hexahydro-3-thia-5-aza-cyclopent-1-ena[c]phenanthrene-9,10-diol hydrobromide] | 0.15 µmol/kg | – | – | – | – | – | – |
| CCCc1cc2c(s1)CNC1CCc3cc(OC(C)=O)c(OC(C)=O)cc3C21 (single isomer, unassigned; (-)) [Example 48, (-)-trans-9,10-Diacetyloxy-2-propyl-4,5,5a,6,7,11b-hexahydro-3-thia-5-aza-cyclopent-1-ena[c]phenanthrene hydrochloride] | 0.04 µmol/kg | – | – | – | – | – | – |
| Oc1cc2c(cc1O)[C@H]1c3cc(CC4CCCC4)sc3CN[C@@H]1CC2 (relative stereo) [Example 39, trans-2-(Cyclopentylmethyl)-4,5,5a,6,7,11b-hexahydro-3-thia-5-aza-cyclopent-1-ena[c]phenanthrene-9,10-diol hydrobromide] | – | 1620 nM | 93% | 110 nM | 450 nM | – | – |
| CC(C)c1cc2c(s1)[C@@H]1c3cc(O)c(O)cc3CC[C@H]1NC2 (relative stereo) [Example 34, trans-2-Isopropyl-4,5,5a,6,7,11b-hexahydro-1-thia-5-aza-cyclopent-2-ena[c]phenanthrene-9,10-diol trifluoroacetate salt] | 0.04 µmol/kg | 420 nM | 80% | – | 4 nM | 16 nM | – |
| CCc1cc2c(s1)CN[C@H]1CCc3cc(O)c(O)cc3[C@H]21 (single isomer, unassigned) [Example 4, (-)-trans-2-ethyl-4,5,5a,6,7,11b-hexahydro-3-thia-5-aza-cyclopent-1-ena[c]phenanthrene-9,10-diol hydrobromide] | 0.04 µmol/kg | – | – | – | – | – | – |
| Cc1ccc(-c2cc3c(s2)CNC2CCc4cc(O)c(O)cc4C32)cc1 (stereo not shown) [Example 46, 2-(4-Methylphenyl)-4,5,5a,6,7,11b-hexahydro-3-thia-5-aza-cyclopent-1-ena[c]phenanthrene-9,10-diol hydrobromide] | – | > 5000 nM | – | – | > 5000 nM | – | – |
| 2-propyl-4,5,5a,6,7,11b-hexahydro-1-thia-5-aza-cyc! opent-2-ena[c]phenanthrene-10-ol hydrobromide [Example 44] | – | – | – | – | – | – | no agonist properties; also recorded: dopamine antagonist |
| Oc1cc2c(cc1O)[C@H]1c3cc(-c4ccccc4)oc3CN[C@@H]1CC2 (relative stereo) [Example 42, trans-2-Phenyl-4,5,5a,6,7,11b-hexahydro-3-oxa-5-aza-cyclopent-1-ena[c]phenanthrene-9,10-diol hydrochloride] | – | 640 nM | 59% | – | 453 nM | 78 nM | – |
| CC(C)(C)c1cc2c(s1)CN[C@H]1CCc3cc(O)c(O)cc3[C@H]21 (relative stereo) [Example 6, trans-2-(1,1-dimethylethyl)-4,5,5a,6,7,11b-hexahydro-3-thia-5-aza-cyclopent-1-ena[c]phenanthrene-9,10-diol hydrobromide] | 0.12 µmol/kg | – | – | – | – | – | – |
| CC(C)CCc1cc2c(s1)[C@@H]1c3cc(O)c(O)cc3CC[C@H]1NC2 (relative stereo) [Example 30, trans-2-(3-Methylbutyl)-4,5,5a,6,7,11b-hexahydro-1-thia-5-aza-cyclopent-2-ena[c]phenanthrene-9,10-diol hydrobromide] | > 1 µmol/kg | 560 nM | 70% | 105 nM | 62 nM | – | – |
| CCCc1nc2c(o1)CN[C@@H]1CCc3cc(O)c(O)cc3[C@@H]21 (relative stereo) [Example 53, trans-2-propyl-4,5,5a,6,7,11b-hexahydro-1,5-diaza-3-oxa-cyclopent-1-ena[c]phenanthrene-9,10-diol dihydrobromide] | – | 230 nM | 83% | 1000 nM | 154 nM | – | – |
| CC(C)(C)c1cc2c(s1)CN[C@H]1CCc3cc(O)c(O)cc3[C@H]21 (single isomer, unassigned) [Example 24, (-)-trans-2-(1,1-Dimethylethyl)-4,5,5a,6,7,11b-hexahydro-3-thia-5-aza-cyclopent-1-ena[c]-phenanthrene-9,10-diol] | 0.04 µmol/kg | – | – | – | – | – | – |
| Cc1cc2c(s1)CN[C@H]1CCc3cc(O)c(O)cc3[C@H]21 (relative stereo) [Example 22, trans-2-methyl-4,5,5a,6,7,11b-hexahydro-3-thia-5-aza-cyclopent-1-ena[c]phenanthrene-9,10-diol hydrobromide] | 0.2 µmol/kg | – | – | – | – | – | – |
| Oc1cc2c(cc1O)[C@H]1c3cc(-c4cccs4)sc3CN[C@@H]1CC2 (relative stereo) [Example 37, trans-2-(2-Thiophenyl)-4,5,5a,6,7,11b-hexahydro-3-thia-5-aza-cyclopent-1-ena[c]phenanthrene-9,10-diol hydrobromide] | – | 3190 nM | 65% | 332 nM | 710 nM | – | – |
| CCCc1nc2c(s1)CN[C@@H]1CCc3cc(O)c(O)cc3[C@@H]21 (relative stereo) [Example 54, trans-2-propyl-4,5,5a,6,7,11b-hexahydro-1,5-diaza-3-thia-cyclopent-1-ena[c]phenanthrene-9,10-diol dihydrobromide] | 0.21 µmol/kg | > 5000 nM | 67% | 580 nM | 220 nM | – | – |
| CCCc1cc2c(o1)CN[C@@H]1CCc3cc(O)c(O)cc3[C@@H]21 (relative stereo) [Example 41, trans-2-Propyl-4,5,5a,6,7,11b-hexahydro-3-oxa-5-aza-cyclopent-1-ena[c]phenanthrene-9,10-diol] | 0.07 µmol/kg | 600 nM | 87% | – | 21 nM | 46 nM | – |
| CCCCCCc1cc2c(s1)CN[C@@H]1CCc3cc(O)c(O)cc3[C@@H]21 (relative stereo) [Example 38, trans-2-Hexyl-4,5,5a,6,7,11b-hexahydro-3-thia-5-aza-cyclopent-1-ena[c]phenanthrene-9,10-diol TFA salt] | – | 2580 nM | 58% | 285 nM | 1430 nM | – | – |
| CCc1cc2c(o1)[C@@H]1c3cc(O)c(O)cc3CC[C@H]1NC2 (relative stereo) [Example 55, trans-2-ethyl-4,5,5a,6,7,11b-hexahydro-1-oxa-5-aza-cyclopent-2-ena[c]phenanthrene-9,10-diol hydrochloride] | 0.17 µmol/kg | 368 nM | 92% | – | 10 nM | 64 nM | – |
| Oc1cc2c(cc1O)[C@@H]1c3sc(-c4ccccc4)cc3CN[C@H]1CC2 (relative stereo) [Example 19, trans-2-phenyl-4,5,5a,6,7,11b-hexahydro-1-thia-5-aza-cyclopent-2-ena[c]phenanthrene-9,10-diol hydrobromide] | – | 750 nM | 79% | – | 360 nM | 25 nM | – |
| CC(C)(C)Cc1cc2c(s1)CN[C@H]1CCc3cc(O)c(O)cc3[C@H]21 (relative stereo) [Example 10, trans-2-(2,2-Dimethylpropyl)-4,5,5a,6,7,11b-hexahydro-3-thia-5-aza-cyclopent-1-ena[c]-phenanthrene-9,10-diol] | – | 4600 nM | 50% | 216 nM | 560 nM | – | – |
| CCCc1cc2c(s1)CN[C@H]1CCc3cc(O)c(O)cc3[C@H]21 (single isomer, unassigned) [Example 20, (-)-trans-2-propyl-4,5,5a,6,7,11b-hexahydro-3-thia-5-aza-cyclopent-1-ena[c]phenanthrene-9,10-diol hydrobromide] | 0.11 µmol/kg | – | – | – | – | – | – |
| Oc1cc2c(cc1O)[C@H]1c3sc(C(F)(F)F)nc3CN[C@@H]1CC2 (relative stereo) [Example 28, trans-2-Trifluoromethyl-4,5,5a,6,7, 11b-hexahydro-1-thia-3,5-diaza-cyclopent-2-ena[c]phenanthrene-9,10-diol] | 0.4 µmol/kg | > 5000 nM | 77% | 202 nM | 52 nM | – | – |
| Cc1cc2c(s1)CN[C@H]1CCc3cc(O)c(O)cc3[C@H]21 (single isomer, unassigned) [Example 23, (-)-trans-2-Methyl-4,5,5a,6,7,11b-hexahydro-3-thia-5-aza-cyclopent-1-ena[c]-phenanthrene-9,10-diol] | 0.05 µmol/kg | – | – | – | – | – | – |
| CCCc1nc2c(s1)[C@H]1c3cc(O)c(O)cc3CC[C@@H]1NC2 (relative stereo) [Example 27, trans-2-propyl-4,5,5a,6,7,11b-hexahydro-1-thia-3,5-diaza-cyclopent-2-ena[c]phenanthrene-9,10-diol dihydrobromide] | > 1 µmol/kg | 210 nM | 93% | 120 nM | 11 nM | – | – |
| CCCc1csc2c1CN[C@@H]1CCc3cc(O)c(O)cc3[C@@H]21 (relative stereo) [Example 52, trans-3-propyl-4,5,5a,6,7,11b-hexahydro-1-thia-5-aza-cyclopent-2-ena[c]phenanthrene-9,10-diol hydrochloride] | 0.32 µmol/kg | – | – | – | – | – | – |
| CCCc1nc2c(o1)[C@@H]1c3cc(O)c(O)cc3CC[C@H]1NC2 (relative stereo) [Example 29, trans-2-Propyl-4,5,5a,6,7,11b-hexahydro-1-oxa-3,5-diaza-cyclopent-2-ena[c]phenanthrene-9,10-diol dihydrobromide] | 0.41 µmol/kg | – | 81% | – | – | 28 nM | – |
| CCc1cc2c(s1)CN[C@H]1CCc3cc(O)c(O)cc3[C@H]21 (relative stereo) [Example 3, trans-2-ethyl-4,5,5a,6,7,11b-hexahydro-3-thia-5-aza-cyclopent-1-ena[c]phenanthrene-9,10-diol hydrobromide] | 0.077 µmol/kg | – | – | – | – | – | – |

From patent publication US5597832A (Abbott Laboratories, priority 1994, dated 1997)
